“Also recorded” adds a separate entry of the source.
Assays:
Arabidopsis thaliana [1] = test: MOA1 phenotypic profiling of sprayed plants (eleven phenotypic characteristics); assay type: in vivo; conditions: hierarchical cluster analysis of eleven phenotypic characteristics
[2] = test system: Arabidopsis thaliana plants; test: SOA1 phenotypic analysis of herbicide-treated plants (MIC, Tmic, leaf traits, symptom class); assay type: in vivo; conditions: for Characteristic symptoms of treated plants (in words): SOA1 phenotypic analysis; for leafCurling (Dev.) / leafTwisting (Dev.) / leafWidth (Dev.) / matureLeafAnthocyanins (Dev.) / matureLeafChlorosis (Dev.) / matureLeafNecrosis (Dev.) / newLeafAnthocyanins (Dev.) / newLeafChlorosis (Dev.) / newLeafNecrosis (Dev.) / pointedLeaves (Dev.): numeric value standardized to mock treated plants; for leafCurling (Dev.) / leafTwisting (Dev.) / leafWidth (Dev.) / matureLeafAnthocyanins (Dev.) / matureLeafChlorosis (Dev.) / matureLeafNecrosis (Dev.) / newLeafAnthocyanins (Dev.) / newLeafChlorosis (Dev.) / newLeafNecrosis (Dev.) / pointedLeaves (Dev.) / tMic (Dev.): SOA1; for tMic (Dev.): score for time to full range of symptoms at the MIC
[3] = test system: Saccharomyces cerevisiae wild type strain BY4743; test: AF1 yeast metabolite analysis by GC-MS and LC-MS after antifungal drug treatment; assay type: cell-based; conditions: for # Compounds perturbed by treatment: 2X MIC, two hours; for Fold Change, phosphoenolpyruvate: metabolite phosphoenolpyruvate; for Fold Change, thymine: metabolite thymine; for Fold Change, urocanic acid: metabolite urocanic acid; for Fold Change, zeatin: metabolite zeatin
yeast cells = test: AF1 combined gene expression and metabolite data mapped to KEGG reactions and pathways; design: species or system Saccharomyces cerevisiae
From the text: The pathway score indicates how meaningful the mapping is, or how likely it is to be correctly indicative of the pathway involved in the perturbation under examination. The method provides a pathway score based on perturbation levels of genes and/or compounds and the information content of each gene and/or compound in the pathway, i.e., a pathway score indicates the extent to which other pathways are mapped to a gene/compound. For example, imagine that two genes are perturbed in a particular experiment. One gene maps to only one pathway, giving a high degree of probability that the perturbed pathway is the one identified in the mapping. The second gene maps to three pathways. In the later example, there is only one-third the probability that the pathway identified in the mapping is the one perturbed. […] Degree of perturbation can be calculated, for example, based on a number of standard deviations from a norm, and included in an equation such as the one shown above, so that not only the number of pathways is taken into account, but also accounts for the amount of gene transcript, or compound present as compared to a control. […] KEGG links 676 compounds measured in AF1 to a total of 92 pathways. Of the 676 compounds under consideration, 77 were detected in the AF1 samples. […]

Arabidopsis thaliana [4] = test: MOA1 gene expression profiling (arrays of 22,000 Arabidopsis genes); conditions: for Gene expression perturbation (in words): MOA1, one-hour time point; for No. of Lethal Genes Altered: altered genes identified as essential for plant growth in internal database
Arabidopsis thaliana [5] = test: MOA1 biochemical (metabolite) profiling by LC-MS and GC-MS; conditions: 20 minutes and 1 hour after spraying
Magnaporthe grisea = assay type: cell-based
[6] = 1 hr, p < 0.5, number of genes of 22,000

SMILES: Nc1nc[nH]n1 [Amitrole]
- Phenotype and phenotypic clustering (in words) (Arabidopsis thaliana [1]): exhibited chlorosis and not true bleaching
- Characteristic symptoms of treated plants (in words) [2]: leaf bleaching and leaf enlargement

SMILES: C[C@@H]1[C@H](O)[C@@H](C)/C=C/C=C/C=C/C=C/C=C/C=C/C=C/[C@H](O[C@@H]2O[C@H](C)[C@@H](O)[C@H](N)[C@@H]2O)C[C@@H]2O[C@](O)(C[C@@H](O)C[C@@H](O)[C@H](O)CC[C@@H](O)C[C@@H](O)CC(=O)O[C@H]1C)C[C@H](O)[C@H]2C(=O)O [Amphoteracin B]
- # Compounds perturbed by treatment ([3]; P < 0.05): 16
- # Compounds perturbed by treatment ([3]; P < 0.1): 21
- Fold Change, abscisic acid ([3]; platform LC): 0
- Fold Change, adenosine ([3]; platform LC): 0
- Fold Change, riboflavin ([3]; platform LC): 0
- Fold Change, selenoOLmethionine ([3]; platform nLC): 0.8515
- Number Of Pathways Having at Least One Enzyme and One Compound Perturbed (# Reactions) (yeast cells): 37
- Number of Reactions Having an Enzyme and at Least One Compound Perturbed (yeast cells): 54

SMILES: COC(=O)NS(=O)(=O)c1ccc(N)cc1 [Asulam]
- Gene expression perturbation (in words) (Arabidopsis thaliana [4]): fewest gene expression perturbations
- No. of Lethal Genes Altered (Arabidopsis thaliana [4]; 1 hr): 5

SMILES: CCSC(=O)N(CC(C)C)CC(C)C [Butylate]
- Phenotype and phenotypic clustering (in words) (Arabidopsis thaliana [1]): neither showed a strong herbicidal phenotype
- Regulated metabolites relative to control (in words) (Arabidopsis thaliana [5]): neither butylate nor chlorpropham treatment resulted in many changes in these commonly regulated metabolites

SMILES: CC(C)OC(=O)Nc1cccc(Cl)c1 [Chloropropham]
- Phenotype and phenotypic clustering (in words) (Arabidopsis thaliana [1]): neither showed a strong herbicidal phenotype
- Regulated metabolites relative to control (in words) (Arabidopsis thaliana [5]): neither butylate nor chlorpropham treatment resulted in many changes in these commonly regulated metabolites

SMILES: COc1nc(C)nc(NC(=O)NS(=O)(=O)c2ccccc2Cl)n1 [Chlorsulfuron]
- No. of Lethal Genes Altered (Arabidopsis thaliana [4]; 1 hr): 8
- Characteristic symptoms of treated plants (in words) [2]: anthocyanin accumulation in the older leaves accompanied by chlorosis of the newly emerging leaves

SMILES: CP(=O)(O)CCC(N)C(=O)O (centres unmarked) [Glufosinate]
- Growth of M. grisea on various nitrogen sources, Tier 4 (Magnaporthe grisea): only able to utilize glutamine and glutamate as nitrogen sources
- Regulated Genes Following Herbicide Treatment: Down (Arabidopsis thaliana [4]; [6]): 54
- No. of Lethal Genes Altered (Arabidopsis thaliana [4]; 1 hr): 10
- Characteristic symptoms of treated plants (in words) [2]: Chlorosis and leaf curling
- leafCurling (Dev.) [2]: 2
- leafTwisting (Dev.) [2]: 1
- leafWidth (Dev.) [2]: −2
- matureLeafAnthocyanins (Dev.) [2]: 0
- matureLeafChlorosis (Dev.) [2]: 3
- matureLeafNecrosis (Dev.) [2]: 0
- newLeafAnthocyanins (Dev.) [2]: 0
- newLeafChlorosis (Dev.) [2]: 3
- newLeafNecrosis (Dev.) [2]: 0
- pointedLeaves (Dev.) [2]: 1
- tMic (Dev.) [2]: 1
- Regulated metabolites relative to control (in words) (Arabidopsis thaliana [5]): Only a few, if any, stress-related metabolites were observed

SMILES: O=C(O)CNCP(=O)(O)O [Glyphosate]
- Growth of M. grisea on various nitrogen sources, Tier 4 (Magnaporthe grisea): inhibited growth of M. grisea when nitrate, nitrite, or glutamate was provided as the sole nitrogen source; also recorded: Little growth defect was observed when ammonium or glutamine was provided
- Growth results for Tiers 3 and 4 (Magnaporthe grisea; 250 μg/ml): nearly identical as compared to Unknown 4
- Growth inhibition of M. grisea and its remediation (Magnaporthe grisea; 1.0 mg/ml): remediated by inclusion of aromatic amino acids to the media
- Characteristic symptoms of treated plants (in words) [2]: anthocyanin accumulation in the older leaves accompanied by chlorosis of the newly emerging leaves
- leafCurling (Dev.) [2]: 0
- leafTwisting (Dev.) [2]: 0
- leafWidth (Dev.) [2]: 0
- matureLeafAnthocyanins (Dev.) [2]: 3
- matureLeafChlorosis (Dev.) [2]: 1
- matureLeafNecrosis (Dev.) [2]: 3
- newLeafAnthocyanins (Dev.) [2]: 1
- newLeafChlorosis (Dev.) [2]: 2
- newLeafNecrosis (Dev.) [2]: 0
- pointedLeaves (Dev.) [2]: 1
- tMic (Dev.) [2]: 2
- Regulated metabolites relative to control (in words) (Arabidopsis thaliana [5]): (tyrosine), decreased relative to the control after one hour

SMILES: CC(C)C1(C)N=C(c2ncccc2C(=O)O)NC1=O (centres unmarked) [Imazapyr]
- Characteristic symptoms of treated plants (in words) [2]: anthocyanin accumulation in the older leaves accompanied by chlorosis of the newly emerging leaves
- Regulated metabolites relative to control (in words) (Arabidopsis thaliana [5]): Only a few, if any, stress-related metabolites were observed

SMILES: CS(=O)(=O)c1cc(C(F)(F)F)ccc1C(=O)c1cnoc1C1CC1 [Isoxaflutole]
- Growth of M. grisea at a sub-inhibitory concentration (minimal, supplemented, minimal plus tyrosine media) (Magnaporthe grisea; concentration insufficient to inhibit growth): growth was inhibited in minimal plus tyrosine media, while growth in minimal media was unaffected
- Gene expression perturbation (in words) (Arabidopsis thaliana [4]): alterations in the expression of genes involved in the homogentisate biosynthetic pathway were not observed
- No. of Lethal Genes Altered (Arabidopsis thaliana [4]; 1 hr): 15
- Regulated metabolites relative to control (in words) (Arabidopsis thaliana [5]): both tyrosine and phenylalanine were up-regulated relative to the control; also recorded: Alpha-tocopherol was detected, but the levels were not significantly changed relative to the control at the early time points; also recorded: (tyrosine and phenylalanine), began to accumulate relative to the control after one hour

SMILES: O=C(O)c1ccccc1C(=O)Nc1cccc2ccccc12 [Naptalam]
- Regulated Genes Following Herbicide Treatment: Down (Arabidopsis thaliana [4]; [6]): 47
- Regulated Genes Following Herbicide Treatment: Up (Arabidopsis thaliana [4]; [6]): 50
- Gene expression perturbation (in words) (Arabidopsis thaliana [4]): fewest gene expression perturbations
- No. of Lethal Genes Altered (Arabidopsis thaliana [4]; 1 hr): 3

SMILES: CNc1cnn(-c2cccc(C(F)(F)F)c2)c(=O)c1Cl [Norfluazon, Norflurazon]
- Regulated metabolites relative to control (in words) (Arabidopsis thaliana [5]): Only a few, if any, stress-related metabolites were observed

SMILES: CC[C@@H]([C@H](C)O)n1ncn(-c2ccc(N3CCN(c4ccc(OC[C@@H]5CO[C@@](Cn6cncn6)(c6ccc(F)cc6F)C5)cc4)CC3)cc2)c1=O [Posaconazole]
- Fold Change, NacetylDglucosamine ([3]; metabolite NacetylDglucosamine, platform nLC, p-Value 1): 0
- Fold Change, NacetylLglucosamine ([3]; metabolite NacetylLglucosamine, platform pLC, p-Value 1): 0
- Fold Change, NacetylLglutamate ([3]; metabolite NacetylLglutamate, platform pLC, p-Value 1): 0
- Fold Change, NacetylLornithine ([3]; metabolite NacetylLornithine, platform nLC, p-Value 1): 0
- Fold Change, niacinamide ([3]; metabolite niacinamide, platform pLC, p-Value 1): 0
- Fold Change, nopaline ([3]; metabolite nopaline, platform pLC, p-Value 1): 0
- Fold Change, ornithine3 ([3]; metabolite ornithine3, platform GC, p-Value 0.965157424): 0.041
- Fold Change, orotic acid ([3]; metabolite orotic acid, platform nLC, p-Value 1): 0
- Fold Change, phenylpyruvic acid ([3]; metabolite phenylpyruvic acid, platform nLC, p-Value 1): 0
- Fold Change, phosphoenolpyruvate ([3]; platform LC, p-Value 1): 0
- Fold Change, phosphoenolpyruvate ([3]; platform nLC, p-Value 1): 0
- Fold Change, pinitol ([3]; metabolite pinitol, platform nLC, p-Value 1): 0
- Fold Change, progesterone ([3]; metabolite progesterone, platform pLC, p-Value 1): 0
- Fold Change, retinoic acid ([3]; metabolite retinoic acid, platform nLC, p-Value 1): 0
- Fold Change, riboflavin ([3]; metabolite riboflavin, platform pLC, p-Value 1): 0
- Fold Change, salicylic/HObenzoic ([3]; metabolite salicylic/HObenzoic, platform nLC, p-Value 1): 0
- Fold Change, shikimic acid ([3]; metabolite shikimic acid, platform nLC, p-Value 1): 0
- Fold Change, sinapinic acid ([3]; metabolite sinapinic acid, platform nLC, p-Value 1): 0
- Fold Change, sugar-phosphate ([3]; metabolite sugar-phosphate, platform pLC, p-Value 1): 0
- Fold Change, thiamine ([3]; metabolite thiamine, platform pLC, p-Value 1): 0
- Fold Change, thymine ([3]; platform nLC, p-Value 1): 0
- Fold Change, thymine ([3]; platform pLC, p-Value 1): 0
- Fold Change, tryptophan ([3]; metabolite tryptophan, platform pLC, p-Value 1): 0
- Fold Change, uric acid ([3]; metabolite uric acid, platform pLC, p-Value 1): 0
- Fold Change, urocanic acid ([3]; platform nLC, p-Value 1): 0
- Fold Change, urocanic acid ([3]; platform pLC, p-Value 1): 0
- Fold Change, xanthosine(diH2O) ([3]; metabolite xanthosine(diH2O), platform pLC, p-Value 1): 0
- Fold Change, xanthosineDiH2O ([3]; metabolite xanthosineDiH2O, platform nLC, p-Value 1): 0
- Fold Change, zeatin ([3]; platform nLC, p-Value 1): 0
- Fold Change, zeatin ([3]; platform pLC, p-Value 1): 0

SMILES: CC[C@@H]([C@H](C)O)n1ncn(-c2ccc(N3CCN(c4ccc(OC[C@@H]5CO[C@@](Cn6cncn6)(c6ccc(F)cc6F)C5)cc4)CC3)cc2)c1=O [Posaconazote]
- Fold Change, porphobilinogen ([3]; metabolite porphobilinogen, platform nLC, p-Value 1): 0
